From patent US20110306606A1, “NOVEL 2,6-SUBSTITUTED-3-NITROPYRIDINE DERIVATIVE, METHOD FOR PREPARING SAME, AND PHARMACEUTICAL COMPOSITION INCLUDING SAME” (priority 2008, published 2011)
Where two headings read alike, the source gives them in different places.

How the values were obtained:
[1] = system: Osteoblasts (Calvarial cells); experiment: Alkaline phosphatase (ALP) activity in osteoblasts (Calvarial cells); assay type: cell-based, mice; settings: 1 μM compound, 3 days; for activity at 1 µM: Mus musculus, 72 h, Calvarial cell, read-out: ALP activity (1 μM, % of Control) Calvarial cell
Experimental: Differentiation and activity of osteoblasts were indirectly evaluated by measuring an ALP activity having a close relationship with osteogenesis.
Osteoblasts (Calvarial cells) prepared in Experimental Example 1 and MC3T3-E1 cells (available from RIKEN Cell Bank, Japan) were collected in α-MEM supplemented with 10% FBS, followed by cell counting. The cells were dispensed into 24-well cultureware at a density of 2×10^4 cells/well. After culturing of the cells for 24 hours, the culture media were discarded and replaced with fresh media in which test compounds were diluted to a concentration of 1 μM (1 mL/well). In addition, the vehicle control group containing 0.1% DMSO was also treated. […] When the experiment was terminated, the supernatant was removed and the cells were washed three times with cold phosphate buffer at 4°. 0.2% Triton X-100 was added to the washed cells which were then subjected to three cycles of freezing at −70° and thawing at room temperature for the complete lysis of cells. The cell extracts were pooled and centrifuged to collect the cell supernatant which was used for the measurement of ALP activity and proteins. The protein concentration was measured using a BCA assay kit (manufactured by Sigma-Aldrich). For the measurement of ALP activity, p-nitrophenylphosphate was added to the cell supernatant which was then incubated at 37° for 30 minutes, and the reaction was terminated with the addition of 50 μL of 0.2N sodium hydroxide. The standard curve was plotted at the absorbance of 405 nm using p-nitrophenol as a standard material and then the absorbance of test materials thus reacted was measured to determine the production amount of p-nitrophenol.
The ALP activity was calculated by dividing the amount of p-nitrophenol produced from each test material by the protein amount and the reaction time. Therefore, the unit of ALP activity was given in terms of p-nitrophenol/μg protein/min. The results are given in Tables 28-1 and 28-2 where the ALP activity unit of each test material was given in terms of % change through the comparison between the individual test materials and the vehicle control group.

[2] = system: Osteoblasts (Calvarial cells); settings: ICR, mouse, 72 h, 1 μM
[3] = system: Osteoblasts (Calvarial cells); experiment: Cytotoxicity test (MTT); settings: 1 μM compound, 72 hours, in comparison with vehicle control

| SMILES | activity at 1 µM [1] | Cell viability (%) Calvarial cell [2] | ALP activity (1 μM, % of Control) Calvarial cell [1] | Cell viability (%) Calvarial cell [3] |
| --- | --- | --- | --- | --- |
| Cc1ccc(Nc2nc(N3CCOCC3)ccc2[N+](=O)[O-])cc1 [Compound 14, 2-(4-methylphenylamino)-6-morpholino-3-nitropyridine] | 135% | 99% |  |  |
| CC(C)Nc1ccc([N+](=O)[O-])c(Nc2ccc(C(C)(C)C)cc2)n1 [Compound 31, 2-[4-(t-butyl)phenylamino]-6-(isopropylamino)-3-nitropyridine] | 134% | 108% |  |  |
| CNc1ccc([N+](=O)[O-])c(Nc2ccc(N)cc2)n1 [Compound 57, 2-[4-(amino)phenylamino]-6-(methylamino)-3-nitropyridine] | 112% | 103% |  |  |
| CC(C)Nc1ccc([N+](=O)[O-])c(Nc2ccc(N)cc2)n1 [Compound 58, 2-[4-(amino)phenylamino]-6-(isopropylamino)-3-nitropyridine] | 127% | 107% |  |  |
| CC(C)(C)Nc1ccc([N+](=O)[O-])c(Nc2ccc(N)cc2)n1 [Compound 60, 2-[4-(amino)phenylamino]-6-(t-butylamino)-3-nitropyridine] | 131% | 119% |  |  |
| Nc1cccc(Nc2nc(N3CCC(N)CC3)ccc2[N+](=O)[O-])c1 [Compound 79, 2-[3-(amino)phenylamino]-6-(4-aminopiperidino)-3-nitropyridine] | 133% | 99% |  |  |
| Nc1cccc(Nc2nc(NCc3cccnc3)ccc2[N+](=O)[O-])c1 [Compound 80, 2-[3-(amino)phenylamino]-6-[(3-pyridyl)methylamino]-3-nitropyridine] | 116% | 102% |  |  |
| Nc1cccc(Nc2nc(NCc3ccncc3)ccc2[N+](=O)[O-])c1 [Compound 81, 2-[3-(amino)phenylamino]-6-[(4-pyridyl)methylamino]-3-nitropyridine] | 123% | 100% |  |  |
| CNc1ccc([N+](=O)[O-])c(Nc2ccc(-n3ccnc3)cc2)n1 [Compound 86, 2-[4-(imidazol-1-yl)phenylamino]-6-(methylamino)-3-nitropyridine] | 144% | 111% |  |  |
| CC(C)Nc1ccc([N+](=O)[O-])c(Nc2ccc(-n3ccnc3)cc2)n1 [Compound 87, 2-[4-(imidazol-1-yl)phenylamino]-6-(isopropylamino)-3-nitropyridine] | 116% | 101% |  |  |
| O=[N+]([O-])c1ccc(N2CCC(O)CC2)nc1Nc1ccc(-n2ccnc2)cc1 [Compound 90, 2-[4-(imidazol-1-yl)phenylamino]-6-(4-hydroxypiperidino)-3-nitropyridine] | 161% | 106% |  |  |
| CC(=O)c1cccc(Nc2nc(N3CCC(O)CC3)ccc2[N+](=O)[O-])c1 [Compound 99, 2-(3-acetylphenylamino)-6-(4-hydroxypiperidino)-3-nitropyridine] | 189% | 104% |  |  |
| CC(=O)c1cccc(Nc2nc(NC(C)(C)C)ccc2[N+](=O)[O-])c1 [Compound 104, 2-(3-acetylphenylamino)-6-(t-butylamino)-3-nitropyridine] | 112% | 97% |  |  |
| CC(=O)c1cccc(Nc2nc(N3CCN(C)CC3)ccc2[N+](=O)[O-])c1 [Compound 105, 2-(3-acetylphenylamino)-6-(4-methylpiperazin-1-yl)-3-nitropyridine] | 121% | 90% |  |  |
| CC(=O)c1cccc(Nc2nc(N3CCOCC3)ccc2[N+](=O)[O-])c1 [Compound 107, 2-(3-acetylphenylamino)-6-morpholino-3-nitropyridine] | 121% | 97% |  |  |
| CC(C)CNc1ccc([N+](=O)[O-])c(Nc2ccc(N3CCOCC3)cc2)n1 [Compound 110, 2-(4-morpholinophenylamino)-6-(isobutylamino)-3-nitropyridine] | 143% | 112% |  |  |
| Cc1nc(-c2ccc(Nc3nc(NC(C)C)ccc3[N+](=O)[O-])cc2)cs1 [Compound 133, 2-[4-(2-methylthiazol-4-yl)phenylamino]-6-(isopropylamino)-3-nitropyridine] | 122% | 102% |  |  |
| Cc1nc(-c2ccc(Nc3nc(-n4ccnc4C(C)C)ccc3[N+](=O)[O-])cc2)cs1 [Compound 137, 2-[4-(2-methylthiazol-4-yl)phenylamino]-6-[(2-isopropyl)imidazol-1-yl]-3-nitropyridine] | 122% | 92% |  |  |
| Cc1nc(-c2ccc(Nc3nc(NC(C)(C)C)ccc3[N+](=O)[O-])cc2)cs1 [Compound 140, 2-[4-(2-methylthiazol-4-yl)phenylamino]-6-(t-butylamino)-3-nitropyridine] | 118% | 102% |  |  |
| NC1CCN(c2ccc([N+](=O)[O-])c(Nc3ccc(-c4csc(C5CCCCC5)n4)cc3)n2)CC1 [Compound 161, 2-[4-(2-cyclohexylthiazol-4-yl)phenylamino]-6-(4-aminopiperidino)-3-nitropyridine] | 121% | 98% |  |  |
| CC1=NCCN1c1ccc([N+](=O)[O-])c(Nc2ccc(N3CCC(N)CC3)c(F)c2)n1 [Compound 252, 2-{[3-fluoro-4-(4-aminopiperidino)]phenylamino}-6-[(2-methyl-4,5-dihydro)imidazol-1-yl]-3-nitropyridine] |  |  | 112 % of Control | 103% |
| NC1CCN(c2ccc(Nc3nc(N4CCNCC4)ccc3[N+](=O)[O-])cc2F)CC1 [Compound 253, 2-{[3-fluoro-4-(4-aminopiperidino)]phenylamino}-6-(piperazin-1-yl)-3-nitropyridine] |  |  | 115 % of Control | 104% |
| NC1CCN(c2ccc(Nc3nc(NCc4cccnc4)ccc3[N+](=O)[O-])cc2F)CC1 [Compound 257, 2-{[3-fluoro-4-(4-aminopiperidino)]phenylamino}-6-[(3-pyridyl)methylamino]-3-nitropyridine] |  |  | 122 % of Control | 101% |
| NC1CCN(c2ccc(Nc3nc(NCc4ccncc4)ccc3[N+](=O)[O-])cc2F)CC1 [Compound 258, 2-{[3-fluoro-4-(4-aminopiperidino)]phenylamino}-6-[(4-pyridyl)methylamino]-3-nitropyridine] |  |  | 115 % of Control | 101% |
